One compound from US20230128137A1, “BENZO FIVE-MEMBERED CYCLIC COMPOUND” (MEDSHINE DISCOVERY INC., priority 2020, published 2023) can be followed below.

Holding throughout (format): in vitro ADME
Data set [1] in a line: Liver microsome metabolic stability in vitro, human. The note with it: human liver microsomes. Here is the method: (§1) 3.2 preparation of nicotinamide adenine dinucleotide phosphate cofactor solution: an appropriate amount of NADPH powder was weighed and diluted into 10 mM magnesium chloride solution (working solution concentration: 10 unit/mL; final concentration of reaction system: 1 unit/mL);
(§2) 3.3 preparation of liver microsomes: an appropriate concentration working solution of liver microsomes (human, SD rat, CD-1 mouse, beagle dog) was prepared in 100 mM potassium phosphate buffer;
(§3) 3.4 preparation of quenching solution: cold (4° C.) acetonitrile containing 200 ng/mL tolbutamide and 200 ng/mL labetalol as internal standard (IS) was used as quenching solution;
(§4) 3.5 experimental operation:
(§5) a. empty “incubation” plates T60 and NCF60 were preheated for 10 minutes;
(§6) b. the liver microsomes were diluted to 0.56 mg/mL with 100 mM phosphate buffer;
(§7) c. 445 μL of microsomal working solution (0.56 mg/mL) was transferred to the preheated “incubation” plates T60 and NCF60, and then the“incubation” plates T60 and NCF60 were preincubated for 10 min with continuous shaking at 37° C. 54 μL of liver microsomes were transferred to a blank plate, and 6 μL of NAPDH cofactor was added to the blank plate, and then 180 μL of quenching solution was added thereto;
(§8) e. for NCF60 plate, 50 μL of buffer was added thereto and the mixture was fully mixed for three times. Timing was started; the plate was shaken at 37° C. for 60 minutes;
(§9) f. in “quenching” plate TO, 180 μL of quenching solution and 6 μL of NAPDH cofactor were addded to make sure that the plate was cooled down to prevent evaporation;
(§10) g. for T60 plates, the mixture was fully mixed for three times, and 54 μL of mixture was immediately transferred to the “quenching” plate at the 0 min time point. 44 μL of NAPDH cofactor was then added to the culture plate (T60). Timing was started; the plate was shaken at 37° C. for 60 minutes;
(§11) h. at 5, 10, 20, 30 and 60 min, 180 μL of quenching solution was added to the “quenching” plate, and the mixture was mixed for one time, and 60 μL of sample was continuously transferred from the T60 plate to the “quenching” plate at each time point;
(§12) i. for NCF60: the mixture was mixed for one time, and 60 μL of sample was transferred from the NCF60 culture dish to the “quenching” plate containing quenching solution at 60 minutes time point;
(§13) j. all sampling plates were shaked for 10 minutes, then centrifuged at 4000 rpm for 20 minutes at 4° C.;
(§14) k. 60 μL of supernatant was transferred into 180 μL of HPLC water and stirred with a plate shaker for 10 min;
(§15) 1. before LC-MS/MS analysis, each bioanalysis plate was sealed and shaked for 10 minutes.
Background: Microsomes from liver hold many membrane-bound enzymes, among them those of drug oxidation.

Data set [2] can be described thus: Liver microsome metabolic stability in vitro, beagle dog. The note with it: beagle dog liver microsomes. Here is the method: as §1, §2, §3, §4, §5, §6, §7, §8, §9, §10, §11, §12, §13, §14, §15
Data set [3] is described as follows: Liver microsome metabolic stability in vitro, SD rat. The note with it: SD rat liver microsomes. Here is the method:
as §1, §2, §3, §4, §5, §6, §7, §8, §9, §10, §11, §12, §13, §14, §15

SMILES strings stand for the structures.

For orientation: CLint scaled means the capacity of the preparation to metabolise the compound, expressed as a volume cleared per time. Broadly, the half-life is how long it takes for the measured level to halve. Turning to `CC1(C)CCC(CN2CCN(c3ccc(C(=O)NS(=O)(=O)c4cc([N+](=O)[O-])c(NCC5CCOCC5)c5[nH]cnc45)c(Oc4cnc5[nH]ccc5c4)c3)CC2)=C(c2ccc(Cl)cc2)C1` [Compound 2], the “Remaining (T = 60 min)” value is reported as 45.6% in data set [1] (60 min incubation), 52% in data set [2] (60 min incubation) and 64.1% in data set [3] (60 min incubation). Besides, the intrinsic clearance (CLint scaled) at 1 µM in data set [1] (human) was 23.9 mL/min/kg; in data set [2], 26.8 mL/min/kg; in data set [3], 23.6 mL/min/kg. For the same compound, the half-life at 1 µM in data set [1] (human) turned out to be 52.2 min; in data set [2] it was 74.4 min; in data set [3] it was 106 min.
